Measured values from patent publication US9593108B2, “Compounds and methods for antiviral treatment” (PTC Therapeutics, Inc., priority 2009, dated 2017).

Legend:
[1] = test system: HCV replicon RNA (GenBank Accession No. AJ242654); assay: HCV Replicon Assay (replicon RNA reduction and/or Fluc reporter signal); assay type: cell-based, Hepatitis C virus; details: Hepatitis C virus, 72 h, replicon-containing cells cultured with test compound for up to 3 days
Outline: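 IC50 values mostly reflect the drop in replicon RNA, though Fluc reporter signal may also be used. Compound incubated with cells carrying the bicistronic replicon for as long as 3 days; interferon served as positive control.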

SMILES	melting point [°C]	IC50 [1] [nM]
N#Cc1c(-c2ccc(S(=O)(=O)NC(CF)CF)cc2)n(C2CCC2)c2ncc(Cl)cc12 [Cpd 8, 4-(5-chloro-3-cyano-1-cyclobutyl-1H-pyrrolo[2,3-b]pyridin-2-yl)-N-(1,3-difluoropropan-2-yl)benzenesulfonamide]	234 to 238	500 to 2000
COc1cnc2c(c1)c(C#N)c(-c1ccc(S(=O)(=O)NC(CF)CF)cn1)n2C1CCC1 [Cpd 9, 6-(3-cyano-1-cyclobutyl-5-methoxy-1H-pyrrolo[2,3-b]pyridin-2-yl)-N-(1,3-difluoropropan-2-yl)pyridine-3-sulfonamide]	161 to 163	< 500
N#Cc1c(-c2ccc(S(=O)(=O)NC(CF)CF)cn2)n(C2CCCC2)c2ncc(Cl)cc12 [Cpd 10, 6-(5-chloro-3-cyano-1-cyclopentyl-1H-pyrrolo[2,3-b]pyridin-2-yl)-N-(1,3-difluoropropan-2-yl)pyridine-3-sulfonamide]	208 to 209	< 500
COc1cnc2c(c1)c(C#N)c(-c1ncc(S(=O)(=O)NC(CF)CF)cn1)n2C1CCC1 [Cpd 11, 2-(3-cyano-1-cyclobutyl-5-methoxy-1H-pyrrolo[2,3-b]pyridin-2-yl)-N-(1,3-difluoropropan-2-yl)pyrimidine-5-sulfonamide]	194 to 196	500 to 2000
N#Cc1c(-c2ccc(S(=O)(=O)NC(CF)CF)cn2)n(C2CCC2)c2ncc(F)cc12 [Cpd 12, 6-(3-cyano-1-cyclobutyl-5-fluoro-1H-pyrrolo[2,3-b]pyridin-2-yl)-N-(1,3-difluoropropan-2-yl)pyridine-3-sulfonamide]	155 to 157	500 to 2000
N#Cc1c(-c2ncc(S(=O)(=O)NC(CF)CF)cn2)n(C2CCC2)c2ncc(Cl)cc12 [Cpd 13, 2-(5-chloro-3-cyano-1-cyclobutyl-1H-pyrrolo[2,3-b]pyridin-2-yl)-N-(1,3-difluoropropan-2-yl)pyrimidine-5-sulfonamide]	199 to 200	< 500
N#Cc1c(-c2ccc(S(=O)(=O)NC(CF)CF)cn2)n(C2CCC2)c2ncc(Cl)cc12 [Cpd 14, 6-(5-chloro-3-cyano-1-cyclobutyl-1H-pyrrolo[2,3-b]pyridin-2-yl)-N-(1,3-difluoropropan-2-yl)pyridine-3-sulfonamide]	176 to 178	< 500
COc1ccc2c(n1)c(C#N)c(-c1ccc(S(=O)(=O)NC(CF)CF)cn1)n2C1CCC1 [Cpd 15, 6-(3-cyano-1-cyclobutyl-5-methoxy-1H-pyrrolo[3,2-b]pyridin-2-yl)-N-(1,3-difluoropropan-2-yl)pyridine-3-sulfonamide]	199 to 201	500 to 2000
N#Cc1c(-c2ncc(S(=O)(=O)NC(CF)CF)cn2)n(C2CCC2)c2ncc(F)cc12 [Cpd 16, 2-(3-cyano-1-cyclobutyl-5-fluoro-1H-pyrrolo[2,3-b]pyridin-2-yl)-N-(1,3-difluoropropan-2-yl)pyrimidine-5-sulfonamide]	204 to 206	500 to 2000
N#Cc1c(-c2ncc(S(=O)(=O)NC(CF)CF)cn2)n(C2CCCC2)c2ncc(Cl)cc12 [Cpd 17, 2-(5-chloro-3-cyano-1-cyclopentyl-1H-pyrrolo[2,3-b]pyridin-2-yl)-N-(1,3-difluoropropan-2-yl)pyrimidine-5-sulfonamide]	247 to 248	500 to 2000
C[C@H](NS(=O)(=O)c1ccc(-c2c(C#N)c3cccnc3n2C2CCC2)nc1)C(F)(F)F [Cpd 18, 6-(3-cyano-1-cyclobutyl-1H-pyrrolo[2,3-b]pyridin-2-yl)-N-[(2S)-1,1,1-trifluoropropan-2-yl]pyridine-3-sulfonamide]	183 to 185	500 to 2000
COc1ccc2c(n1)c(C#N)c(-c1ncc(S(=O)(=O)NC(CF)CF)cn1)n2C1CCC1 [Cpd 19, 2-(3-cyano-1-cyclobutyl-5-methoxy-1H-pyrrolo[3,2-b]pyridin-2-yl)-N-(1,3-difluoropropan-2-yl)pyrimidine-5-sulfonamide]	241 to 243	2000 to 5000
C[C@H](NS(=O)(=O)c1cnc(-c2c(C#N)c3cc(F)cnc3n2C2CCC2)nc1)C(F)(F)F [Cpd 21, 2-(3-cyano-1-cyclobutyl-5-fluoro-1H-pyrrolo[2,3-b]pyridin-2-yl)-N-[(2S)-1,1,1-trifluoropropan-2-yl]pyrimidine-5-sulfonamide]	186 to 187	< 500
COc1cnc2c(c1)c(C#N)c(-c1ncc(S(=O)(=O)N[C@@H](C)C(F)(F)F)cn1)n2C1CCC1 [Cpd 23, 2-(3-cyano-1-cyclobutyl-5-methoxy-1H-pyrrolo[2,3-b]pyridin-2-yl)-N-[(2S)-1,1,1-trifluoropropan-2-yl]pyrimidine-5-sulfonamide]	193 to 196	500 to 2000
C[C@H](NS(=O)(=O)c1ccc(-c2c(C#N)c3cc(Cl)cnc3n2C2CCCC2)nc1)C(F)(F)F [Cpd 24, 6-(5-chloro-3-cyano-1-cyclopentyl-1H-pyrrolo[2,3-b]pyridin-2-yl)-N-[(2S)-1,1,1-trifluoropropan-2-yl]pyridine-3-sulfonamide]	197 to 199	< 500
C[C@H](NS(=O)(=O)c1cnc(-c2c(C#N)c3cc(Cl)cnc3n2C2CCCC2)nc1)C(F)(F)F [Cpd 25, 2-(5-chloro-3-cyano-1-cyclopentyl-1H-pyrrolo[2,3-b]pyridin-2-yl)-N-[(2S)-1,1,1-trifluoropropan-2-yl]pyrimidine-5-sulfonamide]	206 to 208	500 to 2000
Cc1cc2c(cn1)c(C#N)c(-c1ccc(S(=O)(=O)NC(CF)CF)cn1)n2C1CCC1 [Cpd 26, 6-(3-cyano-1-cyclobutyl-6-methyl-1H-pyrrolo[3,2-c]pyridin-2-yl)-N-(1,3-difluoropropan-2-yl)pyridine-3-sulfonamide]	216 to 218	500 to 2000
Cc1cc2c(cn1)c(C#N)c(-c1ncc(S(=O)(=O)NC(CF)CF)cn1)n2C1CCC1 [Cpd 27, 2-(3-cyano-1-cyclobutyl-6-methyl-1H-pyrrolo[3,2-c]pyridin-2-yl)-N-(1,3-difluoropropan-2-yl)pyrimidine-5-sulfonamide]	234 to 236	< 500
Cc1cc2c(cn1)c(C#N)c(-c1ccc(S(=O)(=O)N[C@@H](C)C(F)(F)F)cn1)n2C1CCC1 [Cpd 28, 6-(3-cyano-1-cyclobutyl-6-methyl-1H-pyrrolo[3,2-c]pyridin-2-yl)-N-[(2S)-1,1,1-trifluoropropan-2-yl]pyridine-3-sulfonamide]	189 to 191	2000 to 5000
Cc1cc2c(cn1)c(C#N)c(-c1ccc(S(=O)(=O)N[C@H](C)C(F)(F)F)cn1)n2C1CCC1 [Cpd 29, 6-(3-cyano-1-cyclobutyl-6-methyl-1H-pyrrolo[3,2-c]pyridin-2-yl)-N-[(2R)-1,1,1-trifluoropropan-2-yl]pyridine-3-sulfonamide]	176 to 178	< 500
Cc1cc2c(cn1)c(C#N)c(-c1ccc(S(=O)(=O)N[C@@H](C)C(F)(F)F)cc1)n2C1CCC1 [Cpd 30, 4-(3-cyano-1-cyclobutyl-6-methyl-1H-pyrrolo[3,2-c]pyridin-2-yl)-N-[(2S)-1,1,1-trifluoropropan-2-yl]benzenesulfonamide]	248 to 249	< 500
Cc1cc2c(cn1)c(C#N)c(-c1ccc(S(=O)(=O)N[C@H](C)C(F)(F)F)cc1)n2C1CCC1 [Cpd 31, 4-(3-cyano-1-cyclobutyl-6-methyl-1H-pyrrolo[3,2-c]pyridin-2-yl)-N-[(2R)-1,1,1-trifluoropropan-2-yl]benzenesulfonamide]	247 to 249	< 500
Cc1cc2c(cn1)c(C#N)c(-c1ncc(S(=O)(=O)NC(C)C)cn1)n2C1CCC1 [Cpd 32, 2-(3-cyano-1-cyclobutyl-6-methyl-1H-pyrrolo[3,2-c]pyridin-2-yl)-N-(propan-2-yl)pyrimidine-5-sulfonamide]	242 to 243	< 500
Cc1cc2c(cn1)c(C#N)c(-c1ccc(S(=O)(=O)NC(CF)CF)cc1)n2C1CCC1 [Cpd 33, 4-(3-cyano-1-cyclobutyl-6-methyl-1H-pyrrolo[3,2-c]pyridin-2-yl)-N-(1,3-difluoropropan-2-yl)benzenesulfonamide]	234 to 236	< 500
N#Cc1c(-c2ccc(S(=O)(=O)NC(CF)CF)cc2)n(C2CCC2)c2ncccc12 [Cpd 34, 4-(3-cyano-1-cyclobutyl-1H-pyrrolo[2,3-b]pyridin-2-yl)-N-(1,3-difluoropropan-2-yl)benzenesulfonamide]	180 to 182	< 500
C[C@@H](NS(=O)(=O)c1ccc(-c2c(C#N)c3cccnc3n2C2CCC2)nc1)C(F)(F)F [Cpd 35, 6-(3-cyano-1-cyclobutyl-1H-pyrrolo[2,3-b]pyridin-2-yl)-N-[(2R)-1,1,1-trifluoropropan-2-yl]pyridine-3-sulfonamide]	184 to 186	< 500
CC(C)NS(=O)(=O)c1cnc(-c2c(C#N)c3cccnc3n2C2CCC2)nc1 [Cpd 36, 2-(3-cyano-1-cyclobutyl-1H-pyrrolo[2,3-b]pyridin-2-yl)-N-(propan-2-yl)pyrimidine-5-sulfonamide]	197 to 199	< 500
CC(C)NS(=O)(=O)c1cnc(-c2c(C#N)c3cc(F)cnc3n2C2CCC2)nc1 [Cpd 37, 2-(3-cyano-1-cyclobutyl-5-fluoro-1H-pyrrolo[2,3-b]pyridin-2-yl)-N-(propan-2-yl)pyrimidine-5-sulfonamide]	207 to 209	< 500
COc1ccc2c(C#N)c(-c3ccc(S(=O)(=O)N[C@@H](C)C(F)(F)F)cn3)n(C3CCC3)c2n1 [Cpd 40, 6-(3-cyano-1-cyclobutyl-6-methoxy-1H-pyrrolo[2,3-b]pyridin-2-yl)-N-[(2S)-1,1,1-trifluoropropan-2-yl]pyridine-3-sulfonamide]	193 to 194	500 to 2000
